Results reported in publication PMC8309108, “Rapid and Sensitive Quantification of Intracellular Glycyl-Sarcosine for Semi-High-Throughput Screening for Inhibitors of PEPT-1” (Pharmaceutics, 2021).
“Also recorded” adds a separate entry of the source. Non-standard residues stand in square brackets, D forms with d. Residues, ends and D or L forms follow the SMILES beside them. Sar = CNCC(=O)O

How the values were obtained:
PEPT-1 [1] = molecular target: T1, PEPT-1 (Homo sapiens, UniProt P46059); experiment: Inhibition of PEPT-1 mediated Gly-Sar uptake in Caco-2 cells (UPLC-MS/MS quantification of intracellular Gly-Sar); type: cell-based; conditions: for IC50: 7 d differentiation, 37 °C, pH = 6.0, three independent experiments; for Ki: converted from IC50 with the IC50-to-Ki tool, assuming competitive inhibition and a Km of 860 µM for Gly-Sar, read-out: calculated Ki
T1 construct: allowed to differentiate for at least 7 d to ensure sufficient PEPT-1 expression; host or cells: Caco-2
T1 sequence (P46059 1-708): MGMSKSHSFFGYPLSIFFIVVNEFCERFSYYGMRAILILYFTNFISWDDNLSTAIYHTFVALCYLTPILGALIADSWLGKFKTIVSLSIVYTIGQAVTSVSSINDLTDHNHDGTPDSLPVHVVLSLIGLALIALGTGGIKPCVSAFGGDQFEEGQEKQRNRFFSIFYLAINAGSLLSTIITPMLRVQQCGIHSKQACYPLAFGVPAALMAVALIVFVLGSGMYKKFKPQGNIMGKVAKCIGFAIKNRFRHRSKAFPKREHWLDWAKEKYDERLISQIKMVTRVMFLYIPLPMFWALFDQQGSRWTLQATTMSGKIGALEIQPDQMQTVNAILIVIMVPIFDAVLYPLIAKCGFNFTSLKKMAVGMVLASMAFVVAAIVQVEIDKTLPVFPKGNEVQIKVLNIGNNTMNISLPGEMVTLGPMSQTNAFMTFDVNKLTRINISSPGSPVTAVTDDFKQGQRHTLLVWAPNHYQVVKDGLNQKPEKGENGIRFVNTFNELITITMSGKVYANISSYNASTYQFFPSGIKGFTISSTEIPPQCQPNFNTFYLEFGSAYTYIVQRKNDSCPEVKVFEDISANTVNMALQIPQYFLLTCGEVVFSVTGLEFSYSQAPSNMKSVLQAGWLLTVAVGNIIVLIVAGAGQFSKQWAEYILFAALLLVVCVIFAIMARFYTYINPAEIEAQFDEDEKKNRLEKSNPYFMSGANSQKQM
Description: Caco-2 cells were cultivated in DMEM supplemented with 10% FBS, glutamine (2 mM), penicillin (100 U/mL), streptomycin (100 µg/mL), and 1% NEAS. They were kept at 37 °C and 5% CO2 and passaged once a week. For validation and uptake experiments, cells were seeded in 96-well plates at a density of 6.25 × 10^4 cells/cm^2 and allowed to differentiate for at least 7 d to ensure sufficient PEPT-1 expression. The uptake buffer (MES) was prepared as previously described by Sun et al. and contained 50 mM MES, 136.9 mM NaCl, 5.4 mM KCl, 1.26 mM CaCl2, 0.81 mM MgSO4 × 7 H2O, 0.5 mM Na2HPO4, 0.44 mM KH2PO4, 0.42 mM NaHCO3, and 5.54 mM glucose. The pH value of the uptake buffer was adjusted to pH = 6.0 using either HCl or NaOH solutions. Gly-Sar uptake was tested after 7, 24, and 28 d of Caco-2 cell differentiation. […] After an incubation period of 10 min at 37 °C under gentle agitation, transport was terminated by removing the solution and washing the cells with ice-cold MES buffer (100 µL/well) thrice while the plate was kept on ice. Afterwards, cells were lysed in the 96-well cell culture plate with aqueous NH4OH (10%, 50 µL/well) and sample preparation was performed as described below.
Sample preparation was performed directly in the 96-well cell culture plates. Cell lysates (50 µL) were spiked with 25 µL IS spike solution and, depending on the sample type, with either 5 µL of the respective calibration or QC solution (calibration and QC samples) or with 5 µL H2O/ACN (95/5, v/v) + 0.1% FA for volume compensation (study samples). Subsequently, all samples were filled with 180 µL ACN + 0.1% FA for protein precipitation and centrifuged for 10 min at 800 g. Finally, the 96-well plates were transferred into the Sample Manager for direct injection onto the UPLC-MS/MS system.
The quantification of Gly-Sar in cell homogenates was performed on a UPLC-MS/MS system consisting of a triple-stage quadrupole mass spectrometer (Waters Xevo TQ-XS with Z-spray ESI source) and an Acquity Classic UPLC® (Waters, Milford, MA, USA). Chromatographic separation was achieved on a Waters Cortecs UPLC® HILIC column (90 Å, 1.6 µm, 2.1 × 50 mm) heated to 60 °C with the injection volume set to 10 µL and a flow rate of 0.4 mL/min. The mobile phase consisted of H2O/ACN (95/5, v/v) + 0.1% FA (aqueous eluent; A) and ACN + 0.1% FA (ACN eluent; B). Gly-Sar was eluted with an isocratic composition of 16% A/84% B for 3 min. Subsequently, the conditions were changed to 50% A/50% B within 0.5 min and maintained for 0.5 min to flush the column. Afterwards, the initial ratio of 16% A and 84% B was restored during 0.5 min. The mass spectrometer was operated using an electrospray ionization (ESI) source in the positive ion detection mode. Quantification of Gly-Sar and IS was performed by selected reaction monitoring (SRM) using argon collision gas for collision-induced dissociation (CID). Mass spectrometric parameters were optimized for the detection of Gly-Sar and the IS using the auto-optimization feature IntelliStart of the MassLynx V4.2 system software (Waters, Milford, MA, USA).
Calibration curves were fitted by the Waters TargetLynx V4.2 software (Waters, Milford, MA, USA) using 1/x^2-weighted linear regressions of the peak area ratios of Gly-Sar and the IS. General calculations were performed using Microsoft Excel 2010 ([…]). IC50 values (i.e., the inhibitor concentration, which causes a baseline-normalized half-maximal Gly-Sar uptake) were calculated using the GraphPad Prism 9 software (version 9.1.0; GraphPad Software Inc., La Jolla, CA, USA). Intracellular Gly-Sar concentrations at varying inhibitor concentrations were fitted with nonlinear regression to a four-parameter concentration–response curve (4PL) according to the equation: […]

PEPT-1 [2] = conditions: read-out: reported Ki; cited from earlier work
[3] = Stability of Gly-Sar in processed cell lysate and spike solutions; type: physicochemical
Description: The assay to quantify Gly-Sar in cell homogenates was validated following the EMA and FDA guidelines on bioanalytical method validation. For this purpose, the linearity, accuracy, precision, selectivity, stability, recovery, and matrix effect of the assay were determined in three validation batches, which included eight calibration samples in duplicates and 24 QC samples at four concentrations (LLOQ, low, mid, and high QC) in sixfold determination. Accuracy (%) is the degree of agreement between the determined value and known true value and was subsequently determined by dividing the quantified mean concentration by the nominal concentration. Precision (% CV) describes the degree of agreement between individual measurements of the same analyte and was calculated by dividing the standard deviation by the quantified mean of the measurements. Chromatograms of blank cell lysate samples from six different cell passage numbers and of corresponding spiked samples were assessed for interfering signals at the retention time of Gly-Sar and IS to determine the selectivity of the method. […] Recovery was evaluated for low, mid, and high QC concentration of Gly-Sar by the comparison of peak areas of QC samples spiked after extraction with the respective peak areas of […] spiked after extraction. […] Gly-Sar integrity was further evaluated in the spike solutions. […]

PEPT-1 [4] = molecular target: T1, PEPT-1; parameters: method as in PMID 22490229; conditions: cited from earlier work
[5] = Caco-2 cells, 20 µM Gly-Sar, 10 min

IC50 (PEPT-1 [1]; [5])	Ki (PEPT-1 [1])	Compound	Ki (PEPT-1 [2])	further results
–	–	CN(CC(=O)O)C(=O)CN [Gly-Sar, glycyl-sarcosine] (H-Gly-[Sar]-OH)	–	fraction of Gly-Sar uptake that is PEPT-1 mediated (PEPT-1 [1]; Caco-2 cells, 10 min incubation): around 86%; ratio of bottom to top of the fitted sigmoidal curves (non-inhibited, non-PEPT-1 specific Gly-Sar uptake) (PEPT-1 [1]; mean over all measured IC50 determinations, Caco-2 cells): 14.0 ± 6.7%; deviation of peak areas from the initial values ([3]; samples stored in the autosampler, over 24 h): < 15%; time stable in spike solutions ([3]; spike solutions in H2O/ACN (95/5, v/v) + 0.1% FA): at least 9 months; Km (PEPT-1 [4]): 860 µM
–	–	Nc1nc2c(ncn2COCCO)c(=O)[nH]1 [aciclovir]	–	inhibition of Gly-Sar uptake (in words) (PEPT-1 [1]; Caco-2 cells, 20 µM Gly-Sar, 10 min, pH = 6.0, 0.1–5000 µM inhibitor): no inhibition; also recorded: did not interfere with Gly-Sar uptake; also recorded: did no inhibit the Gly-Sar uptake
45.1 ± 15.8 µM	44 µM	CCCCc1nc(Cl)c(CO)n1Cc1ccc(-c2ccccc2-c2nn[nH]n2)cc1 [losartan]	24 µM	–
894 ± 309 µM	874 µM	CC(C)[C@H](N)C(=O)OCCOCn1cnc2c(=O)[nH]c(N)nc21 [valaciclovir]	740 µM	–

Compound	IC50 (PEPT-1 [1]; [5])	Ki (PEPT-1 [1])	Ki (PEPT-1 [2])	further results
NCC(=O)N1CCC[C@H]1C(=O)O [Gly-Pro, glycyl-proline] (H-Gly-Pro-OH)	257 ± 28 µM	250 µM	300 µM	–
